Legend:
Type in all cases: binding
[1] = biological target: pro-CASP10 (Homo sapiens, UniProt Q92851); test: Blockade of probe 61 labeling of pro-CASP10
[2] = biological target: T1, pro-CASP8 (Homo sapiens, UniProt Q14790, D374A/D384A); test: Click probe 61 labeling of pro-CASP8 and its competition; conditions: 300 nM protein in MDA-MB-231 lysate; read-out: apparent IC50 for blockade of 61 labeling of pro-CASP8
T1 construct: a truncated CASP8 (residues 217-479) without the CARD domain; His6 (C); made in house; host or cells: E. coli BL21(DE3)pLysS

[3] = biological target: T2, IMPDH2 (C140) (Homo sapiens, UniProt P12268); test: Click probe 18 labeling of recombinant IMPDH2 and its competition; conditions: for inhibition of 18 labeling of IMPDH2 by nucleotides: 500 μM of each nucleotide
T2 construct: Full length cDNAs encoding for IDH1 (Open Biosystems, Clone ID: 3880331) and IMPDH2 (Open Biosystems, Clone ID: 3447994); His6 (C); made in house; host or cells: E. coli BL21(DE3)

Chain of pro-CASP10 (Q92851 220-521): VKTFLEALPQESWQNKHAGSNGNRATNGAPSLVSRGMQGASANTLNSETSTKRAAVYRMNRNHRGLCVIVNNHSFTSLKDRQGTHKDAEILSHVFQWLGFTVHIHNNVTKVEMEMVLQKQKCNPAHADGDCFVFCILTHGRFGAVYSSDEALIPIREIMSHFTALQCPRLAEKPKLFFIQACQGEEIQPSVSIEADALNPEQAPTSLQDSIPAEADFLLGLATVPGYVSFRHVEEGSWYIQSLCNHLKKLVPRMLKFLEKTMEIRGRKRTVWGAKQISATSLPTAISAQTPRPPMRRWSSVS
T1 sequence (Q14790 217-479 D374A/D384A): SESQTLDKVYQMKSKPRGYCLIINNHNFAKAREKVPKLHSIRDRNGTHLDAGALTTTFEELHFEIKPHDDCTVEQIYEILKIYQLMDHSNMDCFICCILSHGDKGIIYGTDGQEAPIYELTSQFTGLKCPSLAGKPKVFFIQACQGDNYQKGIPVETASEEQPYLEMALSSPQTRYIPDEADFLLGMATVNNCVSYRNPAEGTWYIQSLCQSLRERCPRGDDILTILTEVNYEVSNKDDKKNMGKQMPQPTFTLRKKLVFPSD

Row | activity against CASP10 (in words) [1] | IC50 [2] [µM] | inhibition of 18 labeling of IMPDH2 by nucleotides [3] | SMILES | IC50 ([3]; probe 18 25 μM, ATP 15 min pre-incubation, read-out: IC50 for blockade of 18 labeling of IMPDH2) [µM]
1 | inactive against CASP10 | 15 |  | O=C(c1ccc(N2CCOCC2)cc1)N1CCC[C@H](N(C(=O)CCl)c2ccccc2)C1 [63-S] | 
2 |  |  | inhibited | Nc1ncnc2c1ncn2[C@@H]1O[C@H](COP(=O)(O)O)[C@@H](O)[C@H]1O [AMP] | 
3 |  |  | inhibited | Nc1nc2c(ncn2[C@@H]2O[C@H](COP(=O)(O)OP(=O)(O)OP(=O)(O)O)[C@@H](O)[C@H]2O)c(=O)[nH]1 [GTP] | 

Row | SMILES | activity against CASP10 (in words) [1] | IC50 [2] [µM] | inhibition of 18 labeling of IMPDH2 by nucleotides [3] | IC50 ([3]; probe 18 25 μM, ATP 15 min pre-incubation, read-out: IC50 for blockade of 18 labeling of IMPDH2) [µM]
4 | Nc1ncnc2c1ncn2[C@@H]1O[C@H](COP(=O)(O)OP(=O)(O)OP(=O)(O)O)[C@@H](O)[C@H]1O [ATP] |  |  | inhibited | 45

Reference: patent publication US10670605B2, “Cysteine reactive probes and uses thereof” (The Scripps Research Institute, priority 2015, dated 2020)
